Results: US6365359B1 (The Regents of the University of California, priority 1997, dated 2002)
Where a SMILES comes first, the peptide text is derived from it. [ ]: non-standard residue; d: D form. The star is where a group is joined. AMC = Cc1cc(=O)oc2cc(N*)ccc12; pGlu = O=C1CC[C@@H](C(=O)O)N1; Cbz = O=C(OCc1ccccc1)*

Test system: PrP^Sc formation in transiently transfected ScN2a cells
Assay type: cell-based, mouse

Row | Compound | Results (effect on transiently transfected ScN2a cells; inhibitory effect on PrP^Sc formation)
1 | 2′-O-Anthramiloy Indenosine 3′5′-Cyclic Monophosphate [Compound 40] | Negative
2 | 6-Morpholino-5-Nitroimidazol [Compound 66] | Negative
3 | CCCCC(NC(=O)CCl)C(=O)O (racemic) [Compound 6, Chloroacetyl-DL-Nortencine] | Negative
4 | CN1C(=O)C(CCCNC(=N)N)NC1=S.Cl (racemic) [Compound 34, MTH-DL-Arginine HCI] | Negative
5 | O=C(O)C(Cc1cnc[nH]1)N1C(=O)c2ccccc2C1=O (racemic) [Compound 45, N Phrhaloyl-DL-Histidine] | Negative
6 | O=C(O)/C=C/c1c[nH]cn1 [Compound 1, Urocanic Acid] | Negative
7 | Nc1ncnc2c1ncn2[C@H]1O[C@H](CO)[C@@H](O)[C@H]1O [Compound 3, α-Adenosine] | Negative
8 | O=P(O)(O)OC[C@H]1O[C@@H](n2cnc3c2ncn2ccnc32)[C@H](O)[C@@H]1O [Compound 7, 1, N6-Ethenoadenosine-5′-Monophosphate] | Positive
9 | NC[C@H]1O[C@H](O[C@H]2[C@H](O)[C@@H](O)[C@H](N)C[C@@H]2N)[C@H](N)[C@@H](O)[C@@H]1O [Compound 9, Neamine] | Negative
10 | Nc1ccn([C@@H]2O[C@H](CO)[C@@H](OP(=O)(O)OC[C@H]3O[C@@H](n4cnc5c(=O)[nH]c(N)nc54)[C@H](O)[C@@H]3O)[C@H]2O)c(=O)n1 [Compound 10, Cytidylyl (3′5′) Guanosine] | Negative
11 | Cn1c(=O)c2c(ncn2C)n(C)c1=O [Compound 13, Caffeine, reference compound] | Negative
12 | N=C(N)c1ccc(-c2cc3ccc(C(=N)N)cc3[nH]2)cc1 [Compound 14, 4′,6-Diamidino-2 Phenylindole] | Negative
13 | NCCC(O)C(=O)NC1CC(N)C(OC2OC(CN)C(O)[C@H](O)[C@@H]2N)[C@H](OC2O[C@H](CO)[C@@H](O)[C@@H]2O)[C@@H]1O.O=S(=O)(O)O.O=S(=O)(O)O (stereo partly drawn) [Compound 15, Butirosin Disulfate Salt, reference compound] | Negative
14 | CN(C)c1ncnc2c1ncn2[C@@H]1O[C@H](CO)[C@@H](N)[C@H]1O [Compound 16, Puromycin Aminonucleoside] | Negative
15 | CC(=O)O[C@@H]1[C@H](OC(C)=O)[C@@H](CO)O[C@H]1n1cnc2c(=O)[nH]c(N)nc21 [Compound 17, 2′3′-Di-O-Acetylguanoside] | Negative
16 | OC[C@H]1O[C@@H](n2cnc3cncnc32)[C@H](O)[C@@H]1O [Compound 18, Purine Riboside] | Positive
17 | NC[C@H]1O[C@H](O[C@H]2[C@H](O[C@@H]3O[C@H](CO)[C@@H](O)[C@H]3O)[C@@H](O)[C@H](N)C[C@@H]2N)[C@H](N)[C@@H](O)[C@@H]1O [Compound 21, Ribostamycin, reference compound] | Negative
18 | NC[C@@H]1CC[C@@H](N)[C@@H](O[C@H]2[C@H](O)[C@@H](O[C@H]3O[C@H](CO)[C@@H](O)[C@H](N)[C@H]3O)[C@H](N)C[C@@H]2N)O1 [Compound 22, Dibekacin, reference compound] | Negative
19 | CN[C@@H]1[C@@H](O)[C@@H](O[C@@H]2[C@@H](O)[C@H](O[C@H]3OC(CN)=CC[C@H]3N)[C@@H](N)C[C@H]2N)OC[C@]1(C)O [Compound 23, Sisomycin, reference compound] | Negative
20 | N=C(N)c1ccc(Oc2ccc(-c3cc4ccc(C(=N)N)cc4[nH]3)cc2)cc1 [Compound 25, Amidinophenyl (6 Amidino-2-indolyl)Phenyl Ether] | Negative
21 | Nc1ccn([C@@H]2O[C@H](COP(=O)(O)O[C@H]3[C@@H](O)[C@H](n4cnc5c(N)ncnc54)O[C@@H]3CO)[C@@H](O)[C@H]2O)c(=O)n1 [Compound 27, Adenylyl (3′5′)Cytidine] | Negative
22 | Nc1nc2c(ncn2[C@@H]2O[C@H](COP(=O)(O)O[C@@H]3[C@H](O)[C@@H](CO)O[C@H]3n3cnc4c(=O)[nH]c(N)nc43)[C@@H](O)[C@H]2O)c(=O)[nH]1 [Compound 28, Guanylyl (2′5′)Guanosine] | Negative
23 | Nc1ncnc2c1ncn2[C@@H]1O[C@H](CO)[C@H]2OP(=O)([O-])O[C@H]21.[Na+] [Compound 29, Adenosine 2′3′cyclic monophosphase sodium salt] | Negative

Row | Compound | Results (effect on transiently transfected ScN2a cells; inhibitory effect on PrP^Sc formation)
24 | CC(=O)O[C@@H]1[C@H](OC(C)=O)[C@@H](CO)O[C@H]1n1cnc2c(N)ncnc21 [Compound 32, 2′3′-Di-O-Acetyladenosine] | Positive
25 | O=P(O)(O)O[C@H]1[C@@H](O)[C@H](n2cnc3c(O)ncnc32)O[C@@H]1CO [Compound 36, Inosine 3′-Monophosphate] | Negative
26 | NC(=NO)c1nc[nH]c1N [Compound 37, Amino Imidazole Carobxamidoxime] | Negative
27 | NC(=O)NC(NC(N)=O)C(=O)O [Compound 38, Allentoic Acid] | Negative
28 | NCC[C@H](O)C(=O)N[C@@H]1C[C@H](N)[C@@H](O[C@H]2O[C@H](CN)[C@@H](O)[C@H](O)[C@H]2O)[C@H](O)[C@H]1O[C@H]1O[C@H](CO)[C@@H](O)[C@H](N)[C@H]1O [Compound 39, Amikacin, reference compound] | Negative
29 | NC(=O)c1ccc(C(=O)O)cc1C(=O)O [Compound 41, Trimellitic Acid Amide] | Negative
30 | [H]/N=C(/N)N[C@H]1[C@H](O)[C@@H](O)[C@H](O[C@@H]2O[C@@H](C)[C@](O)(C=O)[C@H]2O[C@@H]2O[C@@H](CO)[C@H](O)[C@@H](O)[C@@H]2NC)[C@@H](N/C(N)=N\[H])[C@@H]1O [Compound 42, Streptomycin, reference compound] | Negative
31 | CC1(C)C(=O)NC(=O)N1SN1C(=O)NC(=O)C1(C)C [Compound 44, 1,1, Thhiobis 5,5′ Dimethyl hydratoin] | Negative
32 | Nc1ccc(Cc2ccc(N)cc2[N+](=O)[O-])cc1 [Compound 47, 3 mitro 4,4′ methylamediamiline] | Negative
33 | O=C(NC(CO)Cc1c[nH]cn1)c1ccccc1 [Compound 48, n-alphabenzoyl-L-Histidinol] | Negative
34 | COc1ccc(OC)c(NC(=N)N)c1.O=C(O)O [Compound 51, 2,5 Dimethoxy-phenylguanidine Carbonate] | Negative
35 | Cc1cc(=O)oc2cc(NC(=O)[C@H](CCCNC(=N)N)NC(=O)[C@H](Cc3ccccc3)NC(=O)OCc3ccccc3)ccc12.Cl [Compound 53, Z-Phenyl-Arginyl-7-Amido-4-Methylcoumarin Hcl] (Cbz-Phe-Arg-{AMC}) | Negative
36 | Br.N=C(N)NCCC[C@H](NC(=O)OCc1ccccc1)C(=O)OCc1ccc([N+](=O)[O-])cc1 [Compound 54, Z-ARG-OBZL (P-NO2)HBR] | Negative
37 | Cl.NC(N)=NC(=O)c1nc(Cl)c(N)nc1N [Compound 69, Amiloride-HCI, reference compound] | Negative
38 | BOC-Val-Gly-Arg-βNa-AcOH [Compound 49] | Negative
39 | H-Ala-Arg-Oh Acetate [Compound 5] | Negative
40 | Hydroxyguanidino-purine Riboside [Compound 26] | Negative
41 | Leu-Asp-Val-Pro-Ser (LDVPS; printed: Leu-Asp-Val-Pro-Ser) [Compound 57] | Negative
42 | Naphtha (Terbutoxycarbonyl)-L-Arginine [Compound 2] | Negative
43 | PGlu-Gly-Arg-Phe Amide ([pGlu]GRF-NH2; SMILES N=C(N)NCCC[C@H](NC(=O)CNC(=O)[C@@H]1CCC(=O)N1)C(=O)N[C@@H](Cc1ccccc1)C(N)=O) [Compound 20] | Negative
44 | [Glu]-TRH [Compound 55] | negative
45 | [Mei(O)4, D-Lyss, Pho9]-Fragment 4-9 [Compound 30] | Negative
